Measured values as given in BigSolDB 2.1.

Structure (SMILES)	solubility (mole fraction) (in DMF, 278.15 K)	solubility (mole fraction) (in DMF, 283.15 K)	solubility (mole fraction) (in DMF, 288.15 K)	solubility (mole fraction) (in DMF, 293.15 K)	solubility (mole fraction) (in DMF, 298.15 K)	solubility (mole fraction) (in DMF, 303.15 K)	solubility (mole fraction) (in DMF, 308.15 K)	solubility (mole fraction) (in DMF, 313.15 K)	solubility (mole fraction) (in DMF, 318.15 K)	solubility (mole fraction) (in water, 278.15 K)	solubility (mole fraction) (in water, 283.15 K)	solubility (mole fraction) (in water, 288.15 K)	solubility (mole fraction) (in water, 293.15 K)	solubility (mole fraction) (in water, 298.15 K)	solubility (mole fraction) (in water, 303.15 K)	solubility (mole fraction) (in water, 308.15 K)	solubility (mole fraction) (in water, 313.15 K)	solubility (mole fraction) (in water, 318.15 K)
CC(C)CC(N)C(=O)O (racemic)	0.00011	0.00012	0.00014	0.00015	0.00017	0.00018	0.0002	0.00021	0.00023	0.0011	0.00115	0.00124	0.00128	0.00135	0.00144	0.00155	0.00164	0.00178
CC[C@H](C)[C@H](N)C(=O)O (racemic)	0.00023	0.00024	0.00025	0.00026	0.00027	0.00028	0.00029	0.0003	0.00031	0.0025	0.00269	0.0027	0.0029	0.003	0.0032	0.0034	0.0036	0.0038
